Active and inactive are the calls of the source. The calls are words filed in the database; no cut-off is given here.
What was measured:
HL-60 = test: Cytotoxicity against human HL60 cells assessed as cell growth inhibition at 5 ug/ml measured after 72 hrs by MTT assay relative to control; assay type: functional; conditions: HL-60, 72 h, read-out: GI
HCT-116 [1] = test: Cytotoxicity against human HCT116 cells assessed as cell growth inhibition at 5 ug/ml measured after 72 hrs by MTT assay relative to control; assay type: functional; conditions: HCT-116, 72 h, read-out: GI
OVCAR-8 = test: Cytotoxicity against human OVCAR8 cells assessed as cell growth inhibition at 5 ug/ml measured after 72 hrs by MTT assay relative to control; assay type: functional; conditions: OVCAR-8, 72 h, read-out: GI
HCT-116 [2] = test: Induction of morphological changes in human HCT116 cells assessed as bleb formation at 0.2 uM measured after 48 hrs by propidium iodide staining based flow cytometry; assay type: functional, cell-based
HCT-116 [3] = test: Induction of morphological changes in human HCT116 cells assessed as cell pyknosis at 0.2 uM measured after 48 hrs by propidium iodide staining based flow cytometry; assay type: functional
SF-295 = test: Cytotoxicity against human SF295 cells assessed as reduction in cell viability measured after 72 hrs by MTT assay; assay type: functional, cell-based; conditions: SF-295, 72 h
HCT-116 [4] = test: Cell cycle arrest in human HCT116 cells assessed as accumulation at G0/G1 phase at 0.2 uM measured after 48 hrs by propidium iodide staining based flow cytometry (reference value: 41.67 %); assay type: functional
L929 = test: Cytotoxicity against mouse L929 cells assessed as reduction in cell viability measured after 72 hrs by MTT assay; assay type: cell-based; conditions: L929, 72 h
HCT-116 [5] = test: Cell cycle arrest in human HCT116 cells assessed as accumulation at G2/M phase at 0.2 uM measured after 48 hrs by propidium iodide staining based flow cytometry (reference value: 24.98 %); assay type: functional
HCT-116 [6] = test: Induction of DNA fragmentation in human HCT116 cells at 0.2 uM measured after 48 hrs by propidium iodide staining based flow cytometry relative to control; assay type: functional
HCT-116 [7] = test: Cell cycle arrest in human HCT116 cells assessed as accumulation at S phase at 0.2 uM measured after 48 hrs by propidium iodide staining based flow cytometry (reference value: 33.29 %); assay type: functional
HCT-116 [8] = test: Cell cycle arrest in human HCT116 cells assessed as accumulation at G2/M phase at 0.1 uM measured after 48 hrs by propidium iodide staining based flow cytometry (reference value: 24.98 %); assay type: functional
HCT-116 [9] = test: Cell cycle arrest in human HCT116 cells assessed as accumulation at G0/G1 phase at 0.1 uM measured after 48 hrs by propidium iodide staining based flow cytometry (reference value: 41.67 %); assay type: functional
HCT-116 [10] = test: Cell cycle arrest in human HCT116 cells assessed as accumulation at S phase at 0.1 uM measured after 48 hrs by propidium iodide staining based flow cytometry (reference value: 33.29 %); assay type: functional

Compound | inhibition of growth at 5 µg/mL (HL-60) [%] | inhibition of growth at 5 µg/mL (HCT-116 [1]) [%] | inhibition of growth at 5 µg/mL (OVCAR-8) [%] | other results
C(=N\Nc1cnc2ccccc2n1)/c1ccncc1 | 0 | 33.7 | 14.9 | –
C(=N\Nc1cnc2ccccc2n1)/c1cnc[nH]1 | 98.8 | 77.2 | 57.4 | –
C(=N\Nc1cnc2ccccc2n1)/c1ccco1 | 0 | 9.01 | 3.56 | –
C(=N\Nc1cnc2ccccc2n1)/c1cccs1 | 19.7 | 21 | 0 | –
O=[N+]([O-])c1ccc(/C=N/Nc2cnc3ccccc3n2)o1 | 12.2 | 27.1 | 3.95 | –
C(=N\Nc1cnc2ccccc2n1)/c1ccc[nH]1 | 96.3 | 54.3 | 52.3 | –
C(=N\Nc1cnc2ccccc2n1)/c1cccnc1 | 0 | 18.8 | 10.2 | –
COc1cccc2c1C(=O)c1c(O)c3c(c(O)c1C2=O)C[C@@](O)(C(=O)CO)C[C@@H]3O[C@H]1C[C@H](N)[C@H](O)[C@H](C)O1 [DOXORUBICIN] | – | – | – | Activity (HCT-116 [2]): Active; Activity (HCT-116 [3]): Active; IC50 (SF-295): 250 nM; Activity (HCT-116 [4]): 16.48%; IC50 (L929): 660 nM; Activity (HCT-116 [5]): 60.53%; Activity (HCT-116 [6]): 6.02%; Activity (HCT-116 [7]): 22.72%
CC(=O)O[C@H]1C(=O)[C@@]2(C)[C@H]([C@H](OC(=O)c3ccccc3)[C@]3(O)C[C@H](OC(=O)[C@H](O)[C@@H](NC(=O)c4ccccc4)c4ccccc4)C(C)=C1C3(C)C)[C@]1(OC(C)=O)CO[C@@H]1C[C@@H]2O [PACLITAXEL] | – | – | – | Activity (HCT-116 [8]): 61.69%; Activity (HCT-116 [9]): 13.83%; Activity (HCT-116 [10]): 25.09%
O=[N+]([O-])c1ccc(/C=N/Nc2cnc3ccccc3n2)s1 | 0 | 0.03 | 0 | –

Reference: ChEMBL document CHEMBL4602644, “Synthesis of PJOV56, a new quinoxalinyl-hydrazone derivative able to induce autophagy and apoptosis in colorectal cancer cells, and related compounds” (Bioorg Med Chem Lett, 2020)
